One block for each compound: values may come before it.
Assays:
HeLa cells [1] = assay: MTT cell viability / cytotoxicity assay, HeLa cells; assay type: cell-based
Procedure: (§1) Cells were plated in flat-bottom 96-well plates at a density of 3 × 10^3 cells per well. After 12 h of cell attachment, the cell culture medium was replaced with 100 μL of pre-warmed media containing the compounds at different concentrations. After 24–72 h of incubation, cell proliferation was assessed by the MTT assay. A fresh mixture of 10 μL of thiazolyl blue tetrazolium bromide (MTT) and 90 μL of medium were freshly added to each well. After incubation for 4 h, the medium was gently removed. The formazan crystals that formed were dissolved in 110 μL of DMSO, and the absorbance was subsequently measured with a plate reader (Perkin Elmer) at 490 nm. EC50 values were calculated using Origin software. To measure the cytotoxicity of 2, HeLa cells, HUVECs, Saos-2 cells and CCC-HEH-2 cells were incubated with 100 μL of 1–500 μM 2 for 24 h, and then, cell viability was determined. To measure the cytotoxicity of TCO-Dox or Dox, HeLa cells, HUVECs, Saos-2 cells or CCC-HEH-2 cells were incubated with 200 μL of 0.001–10 μM TCO-Dox or Dox for 72 h, and the cell viability was determined. To determine the cytotoxicity of activated Dox, HeLa cells, HUVECs, […], and then, 2 was removed and 200 μL of 0.0001–10 μM TCO-Dox was added for 72 h of incubation, and cell viability was determined. […]
(§2) Prodrug activation efficacy in cells: Cells were plated on flat bottom 96-well plates at a
(§3) density of 3x10^3 cells per well. After 12 h attachment, cells were incubated with 100 µL
(§4) 500 µM of 2 for 6 h before removing 2 and the addition of 200 µL 0.0001-10 µM of […]

Saos-2 cells = assay: MTT cell viability / cytotoxicity assay, Saos-2 cells; assay type: cell-based
Procedure: (§5) Cells were plated in flat-bottom 96-well plates at a density of 3 × 10^3 cells per well. After 12 h of cell attachment, the cell culture medium was replaced with 100 μL of pre-warmed media containing the compounds at different concentrations. After 24–72 h of incubation, cell proliferation was assessed by the MTT assay. A fresh mixture of 10 μL of thiazolyl blue tetrazolium bromide (MTT) and 90 μL of medium were freshly added to each well. After incubation for 4 h, the medium was gently removed. The formazan crystals that formed were dissolved in 110 μL of DMSO, and the absorbance was subsequently measured with a plate reader (Perkin Elmer) at 490 nm. EC50 values were calculated using Origin software. To measure the cytotoxicity of 2, HeLa cells, HUVECs, Saos-2 cells and CCC-HEH-2 cells were incubated with 100 μL of 1–500 μM 2 for 24 h, and then, cell viability was determined. To measure the cytotoxicity of TCO-Dox or Dox, HeLa cells, HUVECs, Saos-2 cells or CCC-HEH-2 cells were incubated with 200 μL of 0.001–10 μM TCO-Dox or Dox for 72 h, and the cell viability was determined. To determine the cytotoxicity of activated Dox, HeLa cells, HUVECs, Saos-2 cells or CCC-HEH-2 cells were pre-incubated with 100 μL of 500 μM 2 for 6 h, and then, 2 was removed and 200 μL of 0.0001–10 μM TCO-Dox was added for 72 h of incubation, and cell viability was determined. […]
Prodrug activation efficacy in cells: Cells were plated on flat bottom 96-well plates at a density of 3x10^3 cells per well. After 12 h attachment, cells were incubated with 100 µL 500 µM of 2 for 6 h before removing 2 and the addition of 200 µL 0.0001-10 µM of TCO-Dox. Cells were further incubated for 72 h before measuring the viability by the MTT […]
Clonogenic assay of cells in vitro: Clonogenic assay was performed according to the standard protocol.6 2×10^5 attached cells were treated with 500 µM of 2 for 6 h in culture dishes. Cells were then detached, re-suspended in cultural medium and counted accurately. The cell suspension was diluted into the desired seeding concentration and cells were seeded in 6-well plates at a density of 200 cells per well for CCC-HEH-2 and 400 cells per well for HeLa, Saos-2 and HUVECs. After incubation for 10 days, the cultural medium was removed and cells were rinsed carefully with PBS. 2 mL of a mixture of 6.0% (vol/vol) glutaraldehyde and 0.5% (wt/vol) crystal violet was added and kept for 30 min.
The glutaraldehyde crystal violet mixture was removed carefully. The colonies were rinsed with water and dried in normal air at room temperature. The number of the colonies was counted using a stereomicroscope.
When untreated cells are plated as a single-cell suspension at low densities, they will grow to colonies. The plating efficiency (PE) is the ratio of the number of colonies to the […]
(Supplementary Equation 1)
The number of colonies that arise after treatment of cells, expressed in terms of PE, is called the surviving fraction (SF): […]

CCC-HEH-2 cells = assay: MTT cell viability / cytotoxicity assay, CCC-HEH-2 cells; assay type: cell-based; details: Homo sapiens; 72 h cytotoxicity, MTT; Activated Dox: cells pre-incubated with 500 μM 2 for 6 h, then TCO-Dox 72 h; read-out: EC50, CCC-HEH-2
Procedure: as §5

HUVECs = assay: MTT cell viability / cytotoxicity assay, HUVECs; assay type: cell-based; details: Homo sapiens, HUVEC, 72 h cytotoxicity, MTT; Activated Dox: cells pre-incubated with 500 μM 2 for 6 h, then TCO-Dox 72 h; read-out: EC50, HUVECs
Procedure: as §1, §2, §3, §4

HeLa tumours = assay: Tumour inhibition test, subcutaneous HeLa xenograft; assay type: in vivo, BALB/c nude mice; details: i.v., three courses (day 0, 3, 6); 50 mg kg^−1 2, 30 mg kg^−1 TCO-Dox, 5 mg kg^−1 Dox, or 50 mg kg^−1 2 then 30 mg kg^−1 TCO-Dox after 2 h
Procedure: All animal studies were performed in accordance with the Institutional Animal Use and Care Regulations approved by the National Institutes of Health Clinical Center/Animal Care and Use Committee (NIH CC/ACUC). Athymic female nude mice (5–6 weeks old) were purchased from Beijing Huafukang Bioscience Co., Ltd., and raised in a specific-pathogen-free barrier facility. Tumour-bearing mice were established by subcutaneously injecting a suspension of 10^6 HeLa cells per mouse into the front flank of each nude mouse.
After 14 days, the mice were sacrificed.

[2] = Systemic toxicity in treated mice (body weight, death, organ histology)
Procedure: When the tumour volume reached approximately 80–100 mm^3, the mice were divided into five groups (n = 8) and used for therapeutic studies. Mice in the treatment group received an i.v. injection of 50 mg kg^−1 2 and a subsequent 30 mg kg^−1 TCO-Dox after a 2-h interval. In the control groups, mice were received 50 mg kg^−1 2, 30 mg kg^−1 TCO-Dox, 5 mg kg^−1 Dox or saline. The mice received three treatment courses on day 0, day 3 and day 6. Tumour size and body weight were measured every 2 days. After 14 days, the mice were sacrificed. Tumours and main organs were obtained for histological examination with HE staining.
Effect of the dosage of Dox to the mice body weight.
The arrows on x-axis marked the administrations of Dox (n= 8).
indicate standard deviation.
Histological examination of heart, liver, spleen, lung and
Organs were harvested after treatment at day 14 and stained by hematoxylin and

HeLa cells [3] = assay: Intracellular Tz accumulation by fluorescence liberation from TCO-CMR, HeLa cells; assay type: cell-based; details: 50 or 500 μM Tz-COOH for 6 h, then 50 μM TCO-CMR 1-24 h
Procedure: Next, we tested the intracellular accumulation of Tz via EISA in an attempt to differentiate cancer cells from normal cells. First, we investigated the accumulation of Tz in HeLa cells and HUVECs over time via fluorescence liberation from TCO-CMR (Fig. 3a). […] The cells were then washed with PBS thoroughly before the addition of an excessive amount of TCO-CMR (100 μL, 50 μM), and the reaction of TCO-CMR with the intracellular accumulated Tz was allowed to proceed for up to 24 h (Supplementary Fig. 8). In this experimental setting, the total liberated fluorescence was proportional to the amount of 3 accumulated inside the cells. […] Therefore, the optimized concentration of 2 (e.g. 500 μM) and incubation time (e.g. 6 h) were selected to differentiate between cancer and normal cells according to liberated fluorescence intensity (Fig. 3c). This differentiation was dependent on the considerably different phosphatase activity between these cell lines (Supplementary Fig. 11), allowing EISA to specifically occur in cancer cells as opposed to normal cells.
All cells were purchased from the National Infrastructure of Cell Line Resource (Beijing, China). HeLa cells, HUVECs and CCC-HEH-2 cells were cultured in a humidified CO2 (5%) incubator at 37 °C in DMEM supplemented with 10% foetal bovine serum (FBS, Gibco) and 1% Pen Strep (PS, Gibco). Saos-2 cells were cultured in a humidified CO2 (5%) incubator at 37 °C in McCoy’s 5A medium supplemented with 10% FBS and 1% PS. Cells were plated in flat-bottom 96-well plates (Corning) at a density of 10^4 cells per well and allowed to attach for 12 h. Then, the culture medium was replaced with 100 μL of pre-warmed medium containing 2 at different concentrations (100–500 μM). After incubation for different durations (1–24 h), the cells were rinsed with PBS, and then 100 μL of 50 μM TCO-CMR (dissolved in PBS) was added for real-time detection of the fluorescence intensity of coumarin in a plate reader (Perkin Elmer).

[4] = Self-assembly and hydrogelation on addition of alkaline phosphatase (ALP); assay type: physicochemical; details: after addition of 10 U mL^−1 ALP (dephosphorylated product)
Procedure: The synthesis of the assembly precursor (NapK(Tz)YpF, 2, Fig. 2a) was straightforward (see Supplementary Methods for a detailed protocol). Because KYF was determined to be an excellent self-assembly motif in a tri-peptide census survey, we constructed our assembling molecules based on this sequence. The conjugation of a strong π–π stacking moiety, namely, a naphthalene group, to the N terminus may further enhance the self-assembly potential of this molecule. Phosphorylation on tyrosine (Y) enabled the responsiveness of this motif to phosphatase. All of these components were sequentially conjugated via typical Fmoc-based solid-phase peptide synthesis (SPPS) to yield NapKYpF (1). The capability of self-assembly and hydrogelation of 1 was confirmed by the addition of 10 U mL^−1 alkaline phosphatase (ALP) into a solution of 1 (Supplementary Fig. 1). The dephosphorylated product of 1 formed transparent hydrogels with a network of uniform nanofibres (Supplementary Fig. 2), and the critical hydrogelation concentration was 1.0 mg mL^−1. The ε-amine of Lys on 1 was conjugated with the Tz derivative Tz-COOH (2-(4-(6-methyl-1,2,4,5-tetrazin-3-yl)phenyl) acetic acid) via an NHS-mediated ester–amide exchange reaction to yield 2. […] Upon the addition of ALP (10 U mL^−1) into the solution of 2, a transparent purple hydrogel was formed within 1 h (Fig. 2b inset), and the critical hydrogelation concentration was 1.0 mg mL^−1 (Supplementary Fig. 3). Similar to the formation of a typical hydrogel, investigation by transmission electron microscopy (TEM) confirmed the existence of numerous uniform nanofibres, each with a diameter of approximately 12 nm, which was close to that of hydrogel 1 (Fig. 2b).

[5] = UPLC-MS/MS pharmacokinetic analyses in tumour, liver and plasma; assay type: in vivo, BALB/c nude mice; details: within 1 h after i.v. 50 mg kg^−1 2
Procedure: For in vivo prodrug activation, mice received an i.v. injection of 50 mg kg^−1 2 and a subsequent 30 mg kg^−1 TCO-Dox after a 2-h interval. After different time intervals, blood samples were collected from the tail veins, and then, the tumours and livers were harvested for UPLC-MS/MS analysis.
UPLC-MS/MS analyses: UPLC-MS/MS metabolomic analyses were performed using a
multiple reaction-monitoring mode (MRM). Data acquisition and processing were performed using LabSolutions version 5 software. Measurements were carried out at
Dox, solvent A consisted of 0.1% formic acid in water and solvent B consisted of 0.1% formic acid in mass spectrometric grade acetonitrile; (2) for compound TCO-Dox, solvent A consisted of 100% water and solvent B consisted of 100% mass spectrometric grade acetonitrile. Injection volume was 2 or 10 L. The mass spectrometer was interfaced with the liquid chromatograph using an electrospray ion source. The nitrogen nebulizing gas flow was set at 10 L min-1 and the drying gas flow at 15 mL min-1. 4500 V were used for the interface voltage. The temperature of the block heater was maintained at 400 °C and the one of the desolvation line at 250 °C. The MRM transitions were
Dox. The collision gas used was argon at 230 kPa. The dwell time was set to 100 msec and the pause time to 3 msec.
Sample preparation: blood samples were collected from the tail vein of mice. Plasma […]

Compound: COc1cccc2c1C(=O)c1c(O)c3c(c(O)c1C2=O)C[C@@](O)(C(=O)CO)C[C@@H]3O[C@H]1C[C@H](N)[C@H](O)[C@H](C)O1 [Dox, doxorubicin, reference compound]
EC50 (HeLa cells [1]; Homo sapiens, HeLa, 72 h cytotoxicity, MTT, Activated Dox: cells pre-incubated with 500 μM 2 for 6 h, then TCO-Dox 72 h, read-out: EC50, HeLa): 732 nM
EC50 ratio CCC-HEH-2/HeLa (HeLa cells [1]; ratio of 72 h EC50 values): 0.115
EC50 ratio HUVECs/HeLa (HeLa cells [1]; ratio of 72 h EC50 values): 0.182
EC50 (Saos-2 cells; Homo sapiens, SAOS-2, 72 h cytotoxicity, MTT, Activated Dox: cells pre-incubated with 500 μM 2 for 6 h, then TCO-Dox 72 h, read-out: EC50, Saos-2): 425 nM
EC50 ratio CCC-HEH-2/Saos-2 (Saos-2 cells; ratio of 72 h EC50 values): 0.198
EC50 ratio HUVECs/Saos-2 (Saos-2 cells; ratio of 72 h EC50 values): 0.313
EC50 (CCC-HEH-2 cells): 84 nM
EC50 (HUVECs): 133 nM
tumour growth (HeLa tumours): tumour growth could be inhibited
death of mice ([2]; 6.0 mg kg-1 Dox): the mice began to die eleven day
death of mice ([2]; 7.5 mg kg-1 Dox): the mice began to die six
death of mice ([2]; 15 mg kg-1 Dox): the mice died within five days

Compound: Cc1nnc(-c2ccc(CC(=O)O)cc2)nn1 [Tz-COOH, 2-(4-(6-methyl-1,2,4,5-tetrazin-3-yl)phenyl) acetic acid, reference compound]
accumulation in HeLa cells (HeLa cells [3]): hardly accumulated

Compound: NCCCCC(NC(=O)Cc1ccc2ccccc2c1)C(=O)NC(Cc1ccc(OP(=O)(O)O)cc1)C(=O)NC(Cc1ccccc1)C(=O)O (stereo not drawn) [compound 1, NapKYpF]
critical hydrogelation concentration [4]: 1.0 mg/mL

concentration in tumours [5]: increased significantly within 1 h
Compound: Cc1nnc(-c2ccc(CC(=O)NCCCCC(NC(=O)Cc3ccc4ccccc4c3)C(=O)NC(Cc3ccc(O)cc3)C(=O)NC(Cc3ccccc3)C(=O)O)cc2)nn1 (stereo not drawn) [compound 3, NapK(Tz)YF]

Reference: article PMC6261997, “Synergistic enzymatic and bioorthogonal reactions for selective prodrug activation in living systems” (Nature Communications, 2018)
